ChEMBL document CHEMBL5715954, “Silencing c-Myc translation as a therapeutic strategy through targeting PI3Kδ and CK1ε in hematological malignancies” (Blood, 2017)

Tests used:
Parameters in all cases: scale not given: the % may be the effect or the level left
[1] = molecular target: Mitogen-activated protein kinase kinase kinase 9 (Homo sapiens) (UniProt P80192); assay: Inhibition of human MLK1 assessed as enzyme activity at 1 uM using casein as substrate preincubated for 20 mins followed by [gamma-33P]-ATP addition and measured after 120 mins by radiometric Hot-SpotSM Kinase assay relative to control
[2] = molecular target: Mitogen-activated protein kinase 10 (Homo sapiens) (UniProt P53779); assay: Inhibition of human JNK3 assessed as enzyme activity at 1 uM using ATF2 as substrate preincubated for 20 mins followed by [gamma-33P]-ATP addition and measured after 120 mins by radiometric Hot-SpotSM Kinase assay relative to control
Chain of Mitogen-activated protein kinase 10 (Homo sapiens) (P53779 whole entry): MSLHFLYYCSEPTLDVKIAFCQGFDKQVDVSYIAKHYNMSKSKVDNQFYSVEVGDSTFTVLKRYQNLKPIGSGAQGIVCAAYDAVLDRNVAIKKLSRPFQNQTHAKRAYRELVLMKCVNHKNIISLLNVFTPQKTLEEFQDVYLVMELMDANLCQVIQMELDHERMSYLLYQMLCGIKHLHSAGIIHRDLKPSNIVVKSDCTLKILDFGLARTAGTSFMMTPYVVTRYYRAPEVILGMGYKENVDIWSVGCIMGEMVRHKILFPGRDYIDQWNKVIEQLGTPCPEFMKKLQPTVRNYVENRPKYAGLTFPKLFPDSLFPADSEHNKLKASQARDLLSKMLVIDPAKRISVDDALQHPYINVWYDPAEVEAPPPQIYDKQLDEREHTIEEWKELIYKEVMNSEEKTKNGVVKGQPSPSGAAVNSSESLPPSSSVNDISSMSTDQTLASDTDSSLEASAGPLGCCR

[3] = molecular target: Mitogen-activated protein kinase 8 (Homo sapiens) (UniProt P45983); assay: Inhibition of human JNK1-alpha1 assessed as enzyme activity at 1 uM using ATF2 as substrate preincubated for 20 mins followed by [gamma-33P]-ATP addition and measured after 120 mins by radiometric Hot-SpotSM Kinase assay relative to control
Chain of Mitogen-activated protein kinase 8 (Homo sapiens) (P45983 whole entry): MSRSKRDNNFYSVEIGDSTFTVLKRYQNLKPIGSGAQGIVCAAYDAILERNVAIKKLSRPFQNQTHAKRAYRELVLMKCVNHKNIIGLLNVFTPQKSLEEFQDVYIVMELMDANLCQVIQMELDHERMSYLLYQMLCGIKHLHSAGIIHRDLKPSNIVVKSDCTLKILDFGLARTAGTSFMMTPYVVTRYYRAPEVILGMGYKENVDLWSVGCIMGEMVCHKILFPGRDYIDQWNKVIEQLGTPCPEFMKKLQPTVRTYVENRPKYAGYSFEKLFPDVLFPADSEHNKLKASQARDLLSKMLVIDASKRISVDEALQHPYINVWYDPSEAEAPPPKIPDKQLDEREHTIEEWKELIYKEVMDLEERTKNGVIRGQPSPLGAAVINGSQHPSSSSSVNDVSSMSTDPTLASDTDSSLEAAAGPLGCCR

[4] = molecular target: Tyrosine-protein kinase receptor UFO (Homo sapiens) (UniProt P30530); assay: Inhibition of human AXL assessed as enzyme activity at 1 uM using poly[Glu:Tyr] (4:1) as substrate preincubated for 20 mins followed by [gamma-33P]-ATP addition and measured after 120 mins by radiometric Hot-SpotSM Kinase assay relative to control
Chain of Tyrosine-protein kinase receptor UFO (Homo sapiens) (P30530 whole entry): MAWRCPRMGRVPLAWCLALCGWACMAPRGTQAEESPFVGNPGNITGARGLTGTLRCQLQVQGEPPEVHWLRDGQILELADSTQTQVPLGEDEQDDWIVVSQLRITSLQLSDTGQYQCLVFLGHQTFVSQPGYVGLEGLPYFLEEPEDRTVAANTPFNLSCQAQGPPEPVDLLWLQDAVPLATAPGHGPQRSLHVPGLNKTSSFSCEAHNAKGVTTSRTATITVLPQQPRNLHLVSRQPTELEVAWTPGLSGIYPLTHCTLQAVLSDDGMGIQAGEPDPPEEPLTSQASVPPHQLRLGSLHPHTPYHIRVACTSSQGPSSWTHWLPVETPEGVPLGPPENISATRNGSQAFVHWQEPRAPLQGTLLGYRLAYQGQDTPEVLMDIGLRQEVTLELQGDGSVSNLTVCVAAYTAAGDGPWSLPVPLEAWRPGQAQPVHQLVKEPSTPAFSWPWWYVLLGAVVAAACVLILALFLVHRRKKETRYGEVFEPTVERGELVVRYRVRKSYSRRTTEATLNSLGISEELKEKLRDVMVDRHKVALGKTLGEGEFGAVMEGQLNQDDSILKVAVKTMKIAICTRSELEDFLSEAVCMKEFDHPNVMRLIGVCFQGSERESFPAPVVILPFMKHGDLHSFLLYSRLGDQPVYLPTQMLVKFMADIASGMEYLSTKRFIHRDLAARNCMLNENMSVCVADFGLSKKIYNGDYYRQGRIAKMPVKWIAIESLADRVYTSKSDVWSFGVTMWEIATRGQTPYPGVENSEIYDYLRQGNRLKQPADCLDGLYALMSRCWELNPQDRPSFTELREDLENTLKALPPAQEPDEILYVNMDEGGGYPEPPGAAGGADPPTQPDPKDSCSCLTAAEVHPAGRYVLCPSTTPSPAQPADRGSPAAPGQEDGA

[5] = molecular target: Death-associated protein kinase 2 (Homo sapiens) (UniProt Q9UIK4); assay: Inhibition of human DAPK2 assessed as enzyme activity at 1 uM using KKLNRTLSFAEPG as substrate preincubated for 20 mins followed by [gamma-33P]-ATP addition and measured after 120 mins by radiometric Hot-SpotSM Kinase assay relative to control
Chain of Death-associated protein kinase 2 (Homo sapiens) (Q9UIK4 whole entry, looked up): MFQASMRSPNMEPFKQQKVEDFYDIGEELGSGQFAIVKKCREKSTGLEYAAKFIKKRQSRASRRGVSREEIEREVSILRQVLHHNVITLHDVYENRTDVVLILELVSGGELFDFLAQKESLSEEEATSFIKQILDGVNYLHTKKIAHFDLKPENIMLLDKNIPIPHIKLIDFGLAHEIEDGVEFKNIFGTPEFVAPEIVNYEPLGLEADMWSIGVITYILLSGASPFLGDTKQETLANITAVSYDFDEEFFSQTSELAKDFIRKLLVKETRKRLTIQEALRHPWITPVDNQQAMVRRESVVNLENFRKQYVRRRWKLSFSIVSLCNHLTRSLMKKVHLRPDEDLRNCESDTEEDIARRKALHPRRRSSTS

[6] = molecular target: Tyrosine-protein kinase JAK1 (Homo sapiens) (UniProt P23458); assay: Inhibition of human JAK1 assessed as enzyme activity at 1 uM using poly[Glu:Tyr] (4:1) as substrate preincubated for 20 mins followed by [gamma-33P]-ATP addition and measured after 120 mins by radiometric Hot-SpotSM Kinase assay relative to control
Chain of Tyrosine-protein kinase JAK1 (Homo sapiens) (P23458 whole entry): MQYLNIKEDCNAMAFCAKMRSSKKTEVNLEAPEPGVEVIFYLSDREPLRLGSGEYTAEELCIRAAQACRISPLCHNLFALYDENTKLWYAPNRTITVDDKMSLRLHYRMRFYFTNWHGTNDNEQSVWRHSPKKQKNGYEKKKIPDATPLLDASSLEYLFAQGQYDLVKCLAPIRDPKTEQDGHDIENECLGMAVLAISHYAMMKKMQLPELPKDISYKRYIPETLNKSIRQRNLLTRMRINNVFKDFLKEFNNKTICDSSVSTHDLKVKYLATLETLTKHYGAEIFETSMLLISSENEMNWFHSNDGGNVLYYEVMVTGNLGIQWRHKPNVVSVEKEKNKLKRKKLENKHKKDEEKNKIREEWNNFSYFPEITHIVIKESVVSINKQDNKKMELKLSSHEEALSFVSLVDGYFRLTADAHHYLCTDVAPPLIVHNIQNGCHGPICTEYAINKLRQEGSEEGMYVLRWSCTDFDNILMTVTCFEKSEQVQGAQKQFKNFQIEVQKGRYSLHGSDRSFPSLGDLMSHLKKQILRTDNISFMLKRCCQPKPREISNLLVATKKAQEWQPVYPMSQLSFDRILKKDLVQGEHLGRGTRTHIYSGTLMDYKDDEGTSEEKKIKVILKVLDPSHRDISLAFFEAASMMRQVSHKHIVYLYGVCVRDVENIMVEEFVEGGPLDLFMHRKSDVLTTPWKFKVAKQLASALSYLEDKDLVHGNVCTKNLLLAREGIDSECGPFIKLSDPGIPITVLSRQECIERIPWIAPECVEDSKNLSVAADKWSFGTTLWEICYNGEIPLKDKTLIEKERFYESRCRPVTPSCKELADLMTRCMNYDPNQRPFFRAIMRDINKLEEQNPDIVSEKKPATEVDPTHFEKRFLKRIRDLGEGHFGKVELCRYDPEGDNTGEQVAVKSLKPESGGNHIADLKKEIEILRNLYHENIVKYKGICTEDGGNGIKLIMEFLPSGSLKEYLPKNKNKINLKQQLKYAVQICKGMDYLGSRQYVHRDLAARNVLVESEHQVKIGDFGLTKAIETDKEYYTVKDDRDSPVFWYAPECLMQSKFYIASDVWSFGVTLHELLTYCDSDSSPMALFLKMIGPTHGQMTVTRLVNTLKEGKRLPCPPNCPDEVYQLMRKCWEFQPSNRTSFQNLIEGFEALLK

[7] = molecular target: Calcium/calmodulin-dependent protein kinase type II subunit gamma (Homo sapiens) (UniProt Q13555); assay: Inhibition of human CAMK2g assessed as enzyme activity at 1 uM using KKLNRTLSFAEPG as substrate preincubated for 20 mins followed by [gamma-33P]-ATP addition and measured after 120 mins by radiometric Hot-SpotSM Kinase assay relative to control
Chain of Calcium/calmodulin-dependent protein kinase type II subunit gamma (Homo sapiens) (Q13555 whole entry): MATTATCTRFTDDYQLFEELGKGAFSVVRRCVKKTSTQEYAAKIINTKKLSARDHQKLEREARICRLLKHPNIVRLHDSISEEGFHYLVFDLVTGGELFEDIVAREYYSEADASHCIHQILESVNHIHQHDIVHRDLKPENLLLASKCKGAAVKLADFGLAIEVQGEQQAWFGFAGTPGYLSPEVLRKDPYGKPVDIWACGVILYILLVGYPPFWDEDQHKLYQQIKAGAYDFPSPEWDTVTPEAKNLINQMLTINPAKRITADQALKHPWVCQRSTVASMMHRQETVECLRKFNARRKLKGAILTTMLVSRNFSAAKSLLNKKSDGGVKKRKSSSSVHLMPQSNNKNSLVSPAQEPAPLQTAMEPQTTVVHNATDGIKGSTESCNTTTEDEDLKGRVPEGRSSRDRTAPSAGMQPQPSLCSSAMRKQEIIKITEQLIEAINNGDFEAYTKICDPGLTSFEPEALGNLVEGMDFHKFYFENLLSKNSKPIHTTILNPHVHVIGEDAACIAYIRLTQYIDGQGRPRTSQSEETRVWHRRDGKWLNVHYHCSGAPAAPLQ

[8] = molecular target: T1, Serine/threonine-protein kinase NLK (Homo sapiens) (UniProt Q9UBE8); assay: Inhibition of human NLK assessed as enzyme activity at 1 uM using myelin basic protein as substrate preincubated for 20 mins followed by [gamma-33P]-ATP addition and measured after 120 mins by radiometric Hot-SpotSM Kinase assay relative to control
T1 sequence (whole entry): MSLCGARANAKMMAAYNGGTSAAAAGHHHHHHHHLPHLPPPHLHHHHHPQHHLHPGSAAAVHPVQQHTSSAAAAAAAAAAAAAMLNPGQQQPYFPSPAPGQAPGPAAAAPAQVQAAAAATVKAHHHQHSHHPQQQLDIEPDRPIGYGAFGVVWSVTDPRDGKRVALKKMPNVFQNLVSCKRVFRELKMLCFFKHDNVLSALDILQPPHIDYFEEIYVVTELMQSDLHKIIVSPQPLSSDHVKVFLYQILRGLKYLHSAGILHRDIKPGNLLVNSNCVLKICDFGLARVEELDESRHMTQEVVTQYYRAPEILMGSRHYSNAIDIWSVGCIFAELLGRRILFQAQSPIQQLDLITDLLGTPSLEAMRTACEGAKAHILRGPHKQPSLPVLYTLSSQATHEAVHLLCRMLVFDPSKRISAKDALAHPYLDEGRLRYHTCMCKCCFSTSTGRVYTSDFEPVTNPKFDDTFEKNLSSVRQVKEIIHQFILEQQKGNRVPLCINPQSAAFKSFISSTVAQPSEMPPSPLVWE

[9] = molecular target: T2, 3-phosphoinositide-dependent protein kinase 1 (Homo sapiens) (UniProt O15530); assay: Inhibition of human PDK1 assessed as enzyme activity at 1 uM using KTFCGTPEYLAPEVRREPRILSEEEQEMFRDFDYIADWC as substrate preincubated for 20 mins followed by [gamma-33P]-ATP addition and measured after 120 mins by radiometric Hot-SpotSM Kinase assay relative to control
T2 sequence (whole entry): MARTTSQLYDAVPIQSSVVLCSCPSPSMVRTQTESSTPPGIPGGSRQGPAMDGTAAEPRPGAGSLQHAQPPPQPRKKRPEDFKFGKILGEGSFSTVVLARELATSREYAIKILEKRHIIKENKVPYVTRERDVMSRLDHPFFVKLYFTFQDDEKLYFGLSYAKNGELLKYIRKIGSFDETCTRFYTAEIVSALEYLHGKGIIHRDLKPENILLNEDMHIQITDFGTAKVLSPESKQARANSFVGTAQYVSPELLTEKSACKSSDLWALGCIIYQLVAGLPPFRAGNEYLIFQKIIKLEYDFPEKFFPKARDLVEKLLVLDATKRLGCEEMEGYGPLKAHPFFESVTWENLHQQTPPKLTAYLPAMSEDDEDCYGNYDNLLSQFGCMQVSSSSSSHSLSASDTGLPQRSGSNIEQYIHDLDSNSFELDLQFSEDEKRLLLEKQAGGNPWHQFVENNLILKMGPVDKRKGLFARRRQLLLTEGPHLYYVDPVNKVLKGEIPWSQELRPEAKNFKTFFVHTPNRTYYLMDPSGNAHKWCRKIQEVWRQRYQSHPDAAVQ

[10] = molecular target: Serine/threonine-protein kinase pim-2 (Homo sapiens) (UniProt Q9P1W9); assay: Inhibition of human PIM2 assessed as enzyme activity at 1 uM using RSRHSSYPAGT as substrate preincubated for 20 mins followed by [gamma-33P]-ATP addition and measured after 120 mins by radiometric Hot-SpotSM Kinase assay relative to control
Chain of Serine/threonine-protein kinase pim-2 (Homo sapiens) (Q9P1W9 whole entry, looked up): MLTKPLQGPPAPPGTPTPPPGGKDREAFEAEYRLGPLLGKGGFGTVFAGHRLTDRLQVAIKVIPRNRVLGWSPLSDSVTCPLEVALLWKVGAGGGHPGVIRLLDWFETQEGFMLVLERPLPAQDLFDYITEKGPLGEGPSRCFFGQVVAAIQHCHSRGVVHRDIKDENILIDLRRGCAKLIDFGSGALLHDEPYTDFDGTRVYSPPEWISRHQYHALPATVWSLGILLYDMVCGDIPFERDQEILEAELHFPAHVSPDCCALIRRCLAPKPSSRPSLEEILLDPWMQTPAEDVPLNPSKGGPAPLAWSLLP

[11] = molecular target: SRSF protein kinase 1 (Homo sapiens) (UniProt Q96SB4); assay: Inhibition of human SRPK1 assessed as enzyme activity at 1 uM using GRSRSRSRSR as substrate preincubated for 20 mins followed by [gamma-33P]-ATP addition and measured after 120 mins by radiometric Hot-SpotSM Kinase assay relative to control
Chain of SRSF protein kinase 1 (Homo sapiens) (Q96SB4 whole entry): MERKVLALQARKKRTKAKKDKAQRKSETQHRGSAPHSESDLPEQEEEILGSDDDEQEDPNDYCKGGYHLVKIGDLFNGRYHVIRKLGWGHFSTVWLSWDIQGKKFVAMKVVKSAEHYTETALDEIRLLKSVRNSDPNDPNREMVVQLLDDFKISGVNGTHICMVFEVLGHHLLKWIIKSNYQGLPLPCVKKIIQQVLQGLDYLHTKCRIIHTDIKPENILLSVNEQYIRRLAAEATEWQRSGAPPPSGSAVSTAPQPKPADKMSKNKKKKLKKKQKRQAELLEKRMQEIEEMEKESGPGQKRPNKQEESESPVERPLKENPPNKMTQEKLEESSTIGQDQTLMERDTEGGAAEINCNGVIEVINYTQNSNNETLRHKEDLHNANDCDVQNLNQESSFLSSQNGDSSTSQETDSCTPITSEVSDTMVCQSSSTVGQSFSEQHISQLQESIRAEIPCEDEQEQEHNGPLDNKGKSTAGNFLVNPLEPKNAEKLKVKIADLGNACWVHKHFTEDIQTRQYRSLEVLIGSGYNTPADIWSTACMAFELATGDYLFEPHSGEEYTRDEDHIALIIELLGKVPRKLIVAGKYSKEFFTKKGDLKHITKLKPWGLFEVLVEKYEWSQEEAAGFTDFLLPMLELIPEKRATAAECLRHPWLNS

Row | Structure (SMILES) | Activity [1] [%] | Activity [2] [%] | Activity [3] [%] | Activity [4] [%] | Activity [5] [%] | Activity [6] [%] | Activity [7] [%] | Activity [8] [%] | Activity [9] [%] | Activity [10] [%] | Activity [11] [%]
1 | CC[C@H](Nc1ncnc2[nH]cnc12)c1nc2cccc(F)c2c(=O)n1-c1ccccc1 | 91.2 | 96 | 97.3 | 93.5 | 106 | 85.6 | 91 | 103 | 94.6 | 100 | 92.7
2 | C[C@H](Nc1ncnc2nc[nH]c12)c1cc2cccc(Cl)c2c(=O)n1-c1ccccc1 | 94 | 96.6 | 101 | 93.9 | 103 | 84.6 | 92.9 | 96.2 | 94.6 | 98.1 | 94
3 | CC(C)Oc1ccc(-c2nn([C@@H](C)c3oc4ccc(F)cc4c(=O)c3-c3cccc(F)c3)c3ncnc(N)c23)cc1F [UMBRALISIB] | 97.6 | 95.6 | 98.7 | 91.2 | 97.9 | 83.4 | 91.5 | 98.3 | 92.8 | 101 | 90.6
